Literature values, collected in US7704724B1 (priority 2006, dated 2010).

Legend:
[1] = molecular target: urease from Klebsiella aerogenes (Klebsiella aerogenes, UniProt P18314); settings: read-out: fluoride inhibition constant (Ki)
Jack Bean urease = Jack Bean urease (Canavalia ensiformis, UniProt P07374); settings: read-out: fluoride inhibition constant (Ki)
Sequence of Jack Bean urease (P07374 whole entry, looked up): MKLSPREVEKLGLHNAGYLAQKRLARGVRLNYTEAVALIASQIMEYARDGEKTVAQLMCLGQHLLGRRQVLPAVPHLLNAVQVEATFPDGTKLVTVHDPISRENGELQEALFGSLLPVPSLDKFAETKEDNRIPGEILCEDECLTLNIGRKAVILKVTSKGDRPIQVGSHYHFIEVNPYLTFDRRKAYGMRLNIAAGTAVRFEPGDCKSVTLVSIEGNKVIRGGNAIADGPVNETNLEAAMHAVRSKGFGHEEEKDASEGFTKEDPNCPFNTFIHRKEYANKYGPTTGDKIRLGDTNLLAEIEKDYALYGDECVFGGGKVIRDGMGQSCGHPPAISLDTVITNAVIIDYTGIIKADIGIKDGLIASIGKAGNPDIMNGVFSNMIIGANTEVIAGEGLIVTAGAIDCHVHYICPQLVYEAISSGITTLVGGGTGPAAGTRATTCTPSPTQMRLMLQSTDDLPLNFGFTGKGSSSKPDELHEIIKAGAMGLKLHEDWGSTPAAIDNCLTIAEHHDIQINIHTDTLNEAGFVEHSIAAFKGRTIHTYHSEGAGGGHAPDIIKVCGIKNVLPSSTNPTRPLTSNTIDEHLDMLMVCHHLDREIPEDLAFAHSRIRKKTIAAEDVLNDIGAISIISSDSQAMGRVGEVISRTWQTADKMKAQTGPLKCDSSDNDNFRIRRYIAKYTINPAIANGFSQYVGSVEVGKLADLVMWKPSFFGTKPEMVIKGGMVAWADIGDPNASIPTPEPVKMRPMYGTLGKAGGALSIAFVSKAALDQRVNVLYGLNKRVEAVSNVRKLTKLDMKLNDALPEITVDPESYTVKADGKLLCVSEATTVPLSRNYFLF

Sequence of urease from Klebsiella aerogenes (P18314 whole entry): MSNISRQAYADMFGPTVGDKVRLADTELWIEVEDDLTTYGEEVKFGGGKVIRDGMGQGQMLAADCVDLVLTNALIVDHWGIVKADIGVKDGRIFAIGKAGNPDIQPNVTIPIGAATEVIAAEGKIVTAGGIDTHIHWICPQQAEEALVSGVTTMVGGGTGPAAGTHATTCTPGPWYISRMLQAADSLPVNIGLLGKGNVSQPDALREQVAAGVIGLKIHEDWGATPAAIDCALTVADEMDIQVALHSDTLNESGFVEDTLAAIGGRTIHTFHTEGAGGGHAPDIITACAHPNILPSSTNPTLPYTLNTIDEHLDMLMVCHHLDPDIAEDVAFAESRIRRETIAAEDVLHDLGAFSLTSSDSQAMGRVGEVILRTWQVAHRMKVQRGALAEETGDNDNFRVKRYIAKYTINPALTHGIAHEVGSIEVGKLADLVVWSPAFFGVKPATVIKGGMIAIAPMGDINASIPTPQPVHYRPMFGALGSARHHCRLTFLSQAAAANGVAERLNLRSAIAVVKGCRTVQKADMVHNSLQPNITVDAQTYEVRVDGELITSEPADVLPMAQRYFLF
Sequence of urease from Klebsiella aerogenes (P18315 whole entry partner): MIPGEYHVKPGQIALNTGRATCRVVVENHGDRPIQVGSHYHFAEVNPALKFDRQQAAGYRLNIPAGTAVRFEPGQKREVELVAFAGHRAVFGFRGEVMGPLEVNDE
Sequence of urease from Klebsiella aerogenes (P18316 whole entry partner): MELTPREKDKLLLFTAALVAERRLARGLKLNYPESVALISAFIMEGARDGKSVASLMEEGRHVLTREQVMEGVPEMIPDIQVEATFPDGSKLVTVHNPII

Compound: F [fluoride]
- Ki [1]: 200 µM
- Ki (Jack Bean urease): 1000 µM
